Measured values: publication PMC7213978, “The dynamic interplay of host and viral enzymes in type III CRISPR-mediated cyclic nucleotide signalling” (eLife, 2020)

Key:
Csx1 = target: T1, Csx1 (Saccharolobus solfataricus, UniProt Q97YD5); assay: native gel electrophoretic mobility shift, quadratic fit; type: binding
T1 construct: recombinant from plasmid expression construct; homodimer
T1 sequence (Q97YD5 1-377): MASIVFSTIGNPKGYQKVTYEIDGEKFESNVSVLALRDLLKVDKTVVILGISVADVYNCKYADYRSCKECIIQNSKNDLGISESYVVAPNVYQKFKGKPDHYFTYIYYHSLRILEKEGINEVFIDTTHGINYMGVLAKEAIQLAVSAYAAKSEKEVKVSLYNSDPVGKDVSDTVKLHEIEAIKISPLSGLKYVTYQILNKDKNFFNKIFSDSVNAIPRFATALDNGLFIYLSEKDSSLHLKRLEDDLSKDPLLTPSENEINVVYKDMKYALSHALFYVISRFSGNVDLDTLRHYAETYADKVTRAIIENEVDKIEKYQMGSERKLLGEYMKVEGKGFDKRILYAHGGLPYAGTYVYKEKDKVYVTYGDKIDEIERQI

Crn1 (Sso2081) = target: T2, Crn1 (Sso2081) (Saccharolobus solfataricus, UniProt Q7LYJ6); assay: native gel electrophoretic mobility shift; type: binding; conditions: read-out: apparent KD
T2 construct: recombinant from plasmid expression construct; homodimer
T2 sequence (Q7LYJ6 1-178): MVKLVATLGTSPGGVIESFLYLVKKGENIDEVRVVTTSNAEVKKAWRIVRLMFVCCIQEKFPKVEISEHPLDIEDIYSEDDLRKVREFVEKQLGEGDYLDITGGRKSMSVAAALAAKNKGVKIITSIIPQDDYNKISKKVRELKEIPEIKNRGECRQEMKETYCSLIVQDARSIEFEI

Nc1ncnc2c1ncn2[C@@H]1O[C@@H]2COP(=O)(O)O[C@H]3[C@@H](O)[C@H](n4cnc5c(N)ncnc54)O[C@@H]3COP(=O)(O)O[C@H]3[C@@H](O)[C@H](n4cnc5c(N)ncnc54)O[C@@H]3COP(=O)(O)O[C@H]3[C@@H](O)[C@H](n4cnc5c(N)ncnc54)O[C@@H]3COP(=O)(O)O[C@H]2[C@H]1O [cA4, cyclic tetra-adenylate]
Kd (Csx1): 130 ± 20 nM
Kd (Crn1 (Sso2081)): ~50 nM
